Data from patent publication US6399649B1, “Compositions and methods for the treatment of chronic lymphocytic leukemia” (Boston Medical Center Corporation, priority 1998, dated 2002).
pIC50: −log10 of the molar value.

Tests used:
[1] = test system: CLL cells; experiment: Hoechst 33342 apoptosis assay, CLL cells; format: cell-based, human; conditions: for percentage of apoptotic cells: three days
Description: (§1) Hoechst 33342 was dissolved in water and frozen at 33 mg/mL at −20° C. One million cells/well were incubated in duplicate or triplicate in 48 well tissue culture plates (Costar, Cambridge, Mass.) with or without drug treatment for […] in 1 mL of culture media. Cells were transferred to 12×75 mm polystyrene Falcon® 2054 FACS tubes (Becton Dickinson Labware, Lincoln Park, N.J.) and incubated for ten minutes at 37° C. with Hoechst 33342 at a final concentration of […]. 23 Cells were stored on ice until analysis on a FACS Vantage flow cytometer (Becton Dickinson, San Jose, Calif.). Hoechst 33342 dye fluorescence was excited with a UV laser and detected using a 450 bandpass filter; Data was analyzed using Cellquest software (Becton Dickinson, San Jose, Calif.).
As a more quantitative analysis of CLL apoptosis, we utilized a flow cytometry method in which apoptotic cells are distinguished both by their reduced size (FSC) and their increased uptake of the lipophilic UV fluorescent dye Hoechst 33342 (FL-4) when the intact, heterogeneous cell population is incubated with a low concentration of the dye (0.25 ug/mL) for 10 minutes at 37° C. Specifically, cells were cultured for 72 hours in media (1), 1uMol/L rolipram (2), 40 uMol/L forskolin (3) or a combination of the two drugs (FIG. 6). The abcissa reflects forward light scatter and the ordinate Hoechst 33342 fluorescence. Apoptotic cells are characterized by reduced forward light scatter and increased Hoechst 33342 fluorescence. Previous reports of cAMP induced lymphoid apoptosis have noted that this form of programmed cell death may take 48 to 72 hours to develop maximally. […] CLL cells were cultured for 72 hours in one mL of media with the indicated concentration of rolipram with (black bars) or without (stippled bars) the addition of 40 uMol/L forskolin.

[2] = test system: IL-2 cultured WMC (>90% CD3+ T cells); experiment: Hoechst 33342 apoptosis assay, IL-2 cultured WMC; format: cell-based, human; conditions: 72 hours, comparable treatments
[3] = test system: magnetic bead purified CD19+B cells; experiment: Hoechst 33342 apoptosis assay, CD19+ B cells; format: cell-based, human; conditions: 72 hours
Description: as §1
This example describes the effect of PDE4 inhibition on normal B and T cells. […] Specifically, one million WMC were cultured with the indicated concentration of rolipram with or without the addition of 40 uMol/L forskolin for 72 hours in the presence of 2 units/mL IL-2. Apoptosis was determined by Hoechst 33342 flow cytometry. […] In contrast, magnetic bead purified CD19+B cells were sensitive to rolipram, although the increment in apoptosis observed was superimposed on a high basal apoptosis rate that has previously been reported in cultured human B cells. Given that crosslinking of cell surface immunoglobulin on resting B cells has been reported to reduce basal and forskolin-induced apoptosis in culture, we also stimulated CD19+ cells with a polyclonal Fab′2 anti-IgM/IgG reagent 30 minutes prior to the addition of the phosphodiesterase inhibitor.

[4] = test system: Bal-17 cells; experiment: cAMP assay (RIA) in Bal-17 cells; format: cell-based, murine; conditions: basal and forskolin-stimulated (data not shown)
[5] = test system: CLL cells; experiment: cAMP assay (RIA) in CLL cells; format: cell-based, human; conditions: 30 uMol/L with forskolin; two hours
Description: One million cells in 1 mL were treated for two hours with or without drugs. 0.8 mL of cells were pelleted by spinning at 4,000 rpm (RCF=1,310) in microcentrifuge tube. After discarding 0.7 mL, 400 uL of ethanol was added, vortexed and left on ice for five minutes. Particulate cell debris was removed by centrifugation at 14,000 rpm (RCF=16,000). The supernatant was stored at −20° C. until the day of assay, at which time it was dried in a Speedivac (Savant, Farmingdale, N.Y.) to a volume of 50 uL. After ten-fold dilution in 10 mMol/L Tris pH 8.0, 1 mMol/L EDTA, the cAMP sample was analyzed for cAMP concentration using a cAMP RIA kit (NEN, Boston, Mass.) according to the manufacturer's instructions using the nonacetylated protocol.
In this example, it was determined what role type 1 and type 4 PDE activity might play in the catabolism of cyclic nucleotides in CLL cells. cAMP levels were measured after culturing leukemic cells with varying concentrations of PDE-isoform specific inhibitors, either alone or in conjunction with an activator of adenylate cyclase, the diterpene forskolin. Specifically, one million freshly isolated cells were incubated with the indicated drugs for two hours prior to analysis of cAMP in cell lysates using a radioimmunoassay. The results are shown in FIG. 4 and the data are the mean of three individually assayed culture wells.

[6] = target: PDE1 enzymes; conditions: cited from earlier work
[7] = test system: CLL cells; conditions: cited from earlier work
[8] = Pt. 3, Rai IV, Drug Res. Ch, CH, basal 38, 10 uMol/L rolipram, 40 uMol/L forskolin or 100 uMol/L dbcAMP
[9] = Pt. 6, Rai IV, Drug Res. Ch, basal 17 ± 4, 10 uMol/L rolipram, 40 uMol/L forskolin or 100 uMol/L dbcAMP
[10] = Pt. 7, Rai II, Drug Res. Ch, basal 13 ± 2, 10 uMol/L rolipram, 40 uMol/L forskolin or 100 uMol/L dbcAMP
[11] = Pt. 9, Rai IV, Drug Res. Ch, Cy, Fl, basal 4 ± 0, 10 uMol/L rolipram, 40 uMol/L forskolin or 100 uMol/L dbcAMP
[12] = Pt. 11, Rai 0, basal 24 ± 4, 10 uMol/L rolipram, 40 uMol/L forskolin or 100 uMol/L dbcAMP
[13] = Pt. 14 (significant population of cells with prolymphocyte morphology), Rai I, basal 13 ± 0, 10 uMol/L rolipram, 40 uMol/L forskolin or 100 uMol/L dbcAMP

## C=C[C@@]1(C)CC(=O)[C@]2(O)[C@@]3(C)[C@@H](O)CCC(C)(C)[C@@H]3[C@H](O)[C@H](OC(C)=O)[C@@]2(C)O1 [forskolin]
[1]; Pt. 2, Rai IV, Drug Res. Ch, Cy, basal 18 ± 2, 10 uMol/L rolipram, 40 uMol/L forskolin or 100 uMol/L dbcAMP
  percentage of apoptotic cells: 46%
[1]; [8]
  percentage of apoptotic cells: 59 ± 0%
[1]; [9]
  percentage of apoptotic cells: 30 ± 4%
[1]; [10]
  percentage of apoptotic cells: 32 ± 0%
[1]; Pt. 8, Rai 0, basal 5, 10 uMol/L rolipram, 40 uMol/L forskolin
  percentage of apoptotic cells: 22%
[1]; [11]
  percentage of apoptotic cells: 17 ± 4%
[1]; Pt. 10, Rai I, basal 11, 10 uMol/L rolipram, 40 uMol/L forskolin or 100 uMol/L dbcAMP
  percentage of apoptotic cells: 26 ± 4%
[1]; [12]
  percentage of apoptotic cells: 40 ± 3%
[1]; Pt. 12, Rai IV, Drug Res. Ch, Fl, 2C, basal 0 ± 4, 10 uMol/L rolipram, 40 uMol/L forskolin or 100 uMol/L dbcAMP
  percentage of apoptotic cells: 43 ± 1%
[1]; [13]
  percentage of apoptotic cells: 19 ± 3%

## CCCC(=O)Nc1ncnc2c1ncn2[C@@H]1O[C@@H]2COP(=O)(O)O[C@H]2[C@H]1OC(=O)CCC [dbcAMP, dibutyryl cAMP]
[1]; CLL cells, 72 hours, 10 uMol/L rolipram, 40 uMol/L forskolin, dbcAMP greater than or equal to 30 mMol/L
  percentage of apoptotic cells relative to control cells: increased significantly
[1]; [8]
  percentage of apoptotic cells: 71 ± 3%
[1]; [9]
  percentage of apoptotic cells: 39 ± 4%
[1]; [10]
  percentage of apoptotic cells: 32 ± 4%
[1]; [11]
  percentage of apoptotic cells: 46 ± 1%
[1]; [12]
  percentage of apoptotic cells: 39 ± 2%
[1]; Pt. 13, Rai 0, basal 2 ± 0, 10 uMol/L rolipram, 40 uMol/L forskolin or 100 uMol/L dbcAMP
  percentage of apoptotic cells: 23 ± 6%
[1]; [13]
  percentage of apoptotic cells: 22 ± 0%
[2]
  percentage of apoptotic cells relative to control cells: did not significantly increase
[3]; anti-Ig stimulated B cells, comparable treatments
  percentage of apoptotic cells relative to control cells: did not significantly increase
[3]; resting B cells, 10 uMol/L rolipram, 40 uMol/L forskolin, dbcAMP greater than or equal to 30 mMol/L
  percentage of apoptotic cells relative to control cells: increased significantly

## CCOC(=O)C1=C[C@]2(CC)CCCN3CCc4c(n1c1ccccc41)[C@@H]32 [vinpocetine]
[4]
  cAMP levels in Bal-17 cells: reduced both basal and forskolin-stimulated cAMP levels
[1]; 10 or 30 uMol/L
  CLL cell apoptosis: underwent apoptosis
[1]; CLL cells (data not shown)
  time of peak apoptosis: ≤ 24 h
[5]
  CLL cell cAMP: not augmented above levels induced by forskolin alone
[6]
  pIC50: 4.68

## Cn1c(=O)c2[nH]cnc2n(C)c1=O [Theophylline]
[7]
  apoptosis in CLL cells: induces apoptosis
